ChEMBL document CHEMBL1126867, “Antipicornavirus activity of tetrazole analogues related to disoxaril” (1993)
Values after ≈ are worked out from the molar mass of the structure shown. Active and inactive are the calls of the source. No cut-off for these calls is given here.

Columns and labels:
[1] = system: rhinovirus B14; assay: In vitro antiviral activity against human rhinovirus-14 using plaque reduction assay; not active; assay type: functional, organism-based; settings: human rhinovirus type 14
[2] = system: Human rhinovirus 1A; assay: In vitro antiviral activity against human rhinovirus-1A using plaque reduction assay; assay type: functional
[3] = system: rhinovirus B14; assay: In vitro antiviral activity against human rhinovirus-14 using plaque reduction assay; assay type: functional, human rhinovirus type 14; settings: Rhinovirus B
[4] = system: Human rhinovirus sp.; assay: (§1) Minimum inhibitory concentration which inhibits 80% of serotypes was determined; assay type: functional
[5] = system: Human rhinovirus 1A; assay: In vitro antiviral activity against human rhinovirus-1A using plaque reduction assay; not active; assay type: functional, organism-based
[6] = system: Human rhinovirus sp.; assay: In vitro antiviral activity against human rhinovirus 14 serotype; assay type: functional
[7] = system: Human rhinovirus 1A; assay: (§2) In vitro antiviral activity against human rhinovirus 1A serotype; assay type: functional
[8] = system: Human rhinovirus sp.; assay: In vitro antiviral activity against human rhinovirus 2 serotype; assay type: functional
[9] = system: Human rhinovirus sp.; assay: In vitro antiviral activity against human rhinovirus 50 serotype; assay type: functional
[10] = system: Human rhinovirus sp.; assay: In vitro antiviral activity against human rhinovirus 6 serotype; assay type: functional
[11] = system: Human rhinovirus sp.; assay: In vitro antiviral activity against human rhinovirus 67 serotype; assay type: functional
[12] = system: Human rhinovirus sp.; assay: In vitro antiviral activity against human rhinovirus 86 serotype; assay type: functional
[13] = system: Human rhinovirus sp.; assay: In vitro antiviral activity against human rhinovirus 89 serotype; assay type: functional
[14] = system: Human rhinovirus sp.; assay: In vitro antiviral activity against human rhinovirus-15 serotype; assay type: functional
[15] = system: Human rhinovirus sp.; assay: In vitro antiviral activity against human rhinovirus-21 serotype; assay type: functional
[16] = system: Human rhinovirus sp.; assay: In vitro antiviral activity against human rhinovirus-22 serotype; assay type: functional
[17] = system: Human rhinovirus sp.; assay: In vitro antiviral activity against human rhinovirus-25 serotype; assay type: functional
[18] = system: Human rhinovirus sp.; assay: In vitro antiviral activity against human rhinovirus-30 serotype; assay type: functional
[19] = system: Human rhinovirus sp.; assay: In vitro antiviral activity against human rhinovirus-41 serotype; assay type: functional
[20] = system: Human rhinovirus 1B (rhinovirus A); assay: In vitro antiviral activity against human rhinovirus 1B serotype
[21] = as §1; assay type: functional, human rhinovirus-1a, 14; settings: Human rhinovirus sp.
[22] = system: Human rhinovirus sp.; assay: as §2; assay type: functional
[23] = system: Human rhinovirus sp.; assay: In vitro antiviral activity against human rhinovirus 1B serotype; assay type: functional

MIC50 [2] [µM]	MIC50 [3] [µM]	MIC80 [4] [µM]	SMILES	also measured
2.14 (≈ 0.671 µg/mL)	–	–	Cc1cc(CCOc2c(C)cc(-c3nnn(C)n3)cc2C)on1	MIC50 [1]: inactive
0.46 (≈ 0.17 µg/mL)	0.32 (≈ 0.118 µg/mL)	1.5 (≈ 0.554 µg/mL)	Cc1cc(-c2nnn(C)n2)cc(C)c1OCCCc1cc(CC(C)C)no1	–
–	–	–	COC(=O)Cn1nnc(-c2cc(C)c(OCCCCCc3cc(C)no3)c(C)c2)n1	MIC50 [1]: inactive; MIC50 [5]: inactive
0.24 (≈ 0.0887 µg/mL)	1.91 (≈ 0.706 µg/mL)	0.73 (≈ 0.27 µg/mL)	Cc1cc(CCCCCCOc2c(C)cc(-c3nnn(C)n3)cc2C)on1	–
–	–	–	Cc1cc(CCCCCOc2c(Cl)cc(C3=NCCO3)cc2Cl)on1 [WIN-54954]	MIC [4]: 0.41 µM (≈ 0.157 µg/mL); MIC [6]: 1.2 µM (≈ 0.46 µg/mL); MIC [7]: 2.51 µM (≈ 0.962 µg/mL); MIC [8]: 0.02 µM (≈ 0.00767 µg/mL); MIC [9]: 0.3 µM (≈ 0.115 µg/mL); MIC [10]: 0.23 µM (≈ 0.0882 µg/mL); MIC [11]: 0.18 µM (≈ 0.069 µg/mL); MIC [12]: 0.21 µM (≈ 0.0805 µg/mL); MIC [13]: 0.02 µM (≈ 0.00767 µg/mL); MIC [14]: 0.41 µM (≈ 0.157 µg/mL); MIC [15]: 0.02 µM (≈ 0.00767 µg/mL); MIC [16]: 0.02 µM (≈ 0.00767 µg/mL); MIC [17]: 0.29 µM (≈ 0.111 µg/mL); MIC [18]: 0.09 µM (≈ 0.0345 µg/mL); MIC [19]: 0.89 µM (≈ 0.341 µg/mL); MIC [20]: 0.17 µM (≈ 0.0652 µg/mL)
–	0.13 (≈ 0.0483 µg/mL)	–	CCC(O)c1cc(CCCOc2c(C)cc(-c3nnn(C)n3)cc2C)on1 (stereo unspecified)	MIC50 [5]: inactive
6.5 (≈ 2.31 µg/mL)	1.6 (≈ 0.569 µg/mL)	1.27 (≈ 0.451 µg/mL)	CCCn1nnc(-c2cc(C)c(OCCCc3cc(C)no3)c(C)c2)n1	–
0.28 (≈ 0.0995 µg/mL)	0.73 (≈ 0.259 µg/mL)	0.73 (≈ 0.259 µg/mL)	Cc1cc(-c2nnn(C)n2)cc(C)c1OCCCc1cc(C(C)C)no1	–
0.12 (≈ 0.0426 µg/mL)	0.96 (≈ 0.341 µg/mL)	–	CC(=O)c1cc(CCCOc2c(C)cc(-c3nnn(C)n3)cc2C)on1	–
0.18 (≈ 0.0669 µg/mL)	0.62 (≈ 0.23 µg/mL)	1.59 (≈ 0.591 µg/mL)	Cc1cc(-c2nnn(C)n2)cc(C)c1OCCCCCc1cc(CO)no1	–
–	4.35 (≈ 1.68 µg/mL)	–	Cc1cc(CCCCCOc2c(C)cc(-c3nnn(CCO)n3)cc2C)on1	MIC50 [5]: inactive
0.34 (≈ 0.121 µg/mL)	0.45 (≈ 0.16 µg/mL)	0.39 (≈ 0.139 µg/mL)	Cc1cc(CCCCCOc2c(C)cc(-c3nnn(C)n3)cc2C)on1	–
0.11 (≈ 0.0378 µg/mL)	1.4 (≈ 0.481 µg/mL)	0.33 (≈ 0.113 µg/mL)	COc1cc(CCCOc2c(C)cc(-c3nnn(C)n3)cc2C)on1	–
6.5 (≈ 2.4 µg/mL)	–	–	CCCCn1nnc(-c2cc(C)c(OCCCc3cc(C)no3)c(C)c2)n1	MIC50 [1]: inactive
0.39 (≈ 0.145 µg/mL)	0.08 (≈ 0.0297 µg/mL)	0.6 (≈ 0.223 µg/mL)	CCCOc1cc(CCCOc2c(C)cc(-c3nnn(C)n3)cc2C)on1	–
–	–	–	Cc1cc(COc2c(C)cc(-c3nnn(C)n3)cc2C)on1	MIC50 [1]: inactive; MIC50 [5]: inactive
0.05 (≈ 0.0171 µg/mL)	0.5 (≈ 0.171 µg/mL)	0.41 (≈ 0.14 µg/mL)	CCc1cc(CCCOc2c(C)cc(-c3nnn(C)n3)cc2C)on1	–
4.9 (≈ 2.47 µg/mL)	1.05 (≈ 0.529 µg/mL)	–	Cc1cc(-c2nnn(C)n2)cc(C)c1OCCCCCc1cc(COCCOCCOCCO)no1	–
0.14 (≈ 0.05 µg/mL)	1.4 (≈ 0.5 µg/mL)	1.1 (≈ 0.393 µg/mL)	Cc1cc(-c2nnn(C)n2)cc(C)c1OCCCc1cc(C(C)O)no1 (stereo unspecified)	–

MIC50 [2] [µM]	MIC50 [3] [µM]	MIC80 [4] [µM]	SMILES	also measured
0.76 (≈ 0.291 µg/mL)	3 (≈ 1.15 µg/mL)	1.6 (≈ 0.614 µg/mL)	Cc1cc(CCCCCCCOc2c(C)cc(-c3nnn(C)n3)cc2C)on1	–
0.12 (≈ 0.0446 µg/mL)	0.05 (≈ 0.0186 µg/mL)	0.3 (≈ 0.111 µg/mL)	COCCc1cc(CCCOc2c(C)cc(-c3nnn(C)n3)cc2C)on1	–
0.2 (≈ 0.0687 µg/mL)	3.4 (≈ 1.17 µg/mL)	3.4 (≈ 1.17 µg/mL)	Cc1cc(-c2nnn(C)n2)cc(C)c1OCCCc1cc(CO)no1	–
0.54 (≈ 0.2 µg/mL)	0.11 (≈ 0.0406 µg/mL)	0.54 (≈ 0.2 µg/mL)	CCCCc1cc(CCCOc2c(C)cc(-c3nnn(C)n3)cc2C)on1	–
0.73 (≈ 0.27 µg/mL)	0.73 (≈ 0.27 µg/mL)	0.65 (≈ 0.24 µg/mL)	CCn1nnc(-c2cc(C)c(OCCCCCc3cc(C)no3)c(C)c2)n1	–
4.03 (≈ 1.8 µg/mL)	0.06 (≈ 0.0267 µg/mL)	–	Cc1cc(-c2nnn(C)n2)cc(C)c1OCCCCCc1cc(COCOCCO)no1	–
0.38 (≈ 0.151 µg/mL)	0.38 (≈ 0.151 µg/mL)	0.25 (≈ 0.0991 µg/mL)	Cc1cc(CCCCCOc2c(Cl)cc(-c3nnn(C)n3)cc2Cl)on1	–
0.15 (≈ 0.0536 µg/mL)	0.1 (≈ 0.0357 µg/mL)	0.7 (≈ 0.25 µg/mL)	CCOc1cc(CCCOc2c(C)cc(-c3nnn(C)n3)cc2C)on1	–
0.71 (≈ 0.264 µg/mL)	1.8 (≈ 0.669 µg/mL)	–	Cc1cc(-c2nnn(C)n2)cc(C)c1OCCCc1cc(CC(C)O)no1 (stereo unspecified)	–
0.2 (≈ 0.0743 µg/mL)	0.17 (≈ 0.0631 µg/mL)	0.4 (≈ 0.149 µg/mL)	Cc1cc(-c2nnn(C)n2)cc(C)c1OCCCc1cc(CCCO)no1	–
0.14 (≈ 0.05 µg/mL)	2 (≈ 0.715 µg/mL)	1.09 (≈ 0.39 µg/mL)	Cc1cc(-c2nnn(C)n2)cc(C)c1OCCCc1cc(CCO)no1	–
0.1 (≈ 0.0341 µg/mL)	2.43 (≈ 0.83 µg/mL)	0.66 (≈ 0.225 µg/mL)	Cc1cc(CCCCOc2c(C)cc(-c3nnn(C)n3)cc2C)on1	–
0.67 (≈ 0.229 µg/mL)	0.8 (≈ 0.273 µg/mL)	0.25 (≈ 0.0854 µg/mL)	CCn1nnc(-c2cc(C)c(OCCCc3cc(C)no3)c(C)c2)n1	–
0.67 (≈ 0.26 µg/mL)	–	–	Cc1cc(-c2nnn(C)n2)cc(C)c1OCCCc1cc(CC(O)CO)no1 (stereo unspecified)	MIC50 [1]: inactive
0.19 (≈ 0.0672 µg/mL)	0.48 (≈ 0.17 µg/mL)	0.48 (≈ 0.17 µg/mL)	Cc1cc(-c2nnn(C)n2)cc(C)c1OCCCc1cc(C2CC2)no1	–
1.4 (≈ 0.54 µg/mL)	30.4 (≈ 11.7 µg/mL)	–	Cc1cc(-c2nnn(C)n2)cc(C)c1OCCCCCc1cc(C(=O)O)no1	–
2.89 (≈ 1.33 µg/mL)	0.33 (≈ 0.152 µg/mL)	–	COCCOCOCc1cc(CCCCCOc2c(C)cc(-c3nnn(C)n3)cc2C)on1	–
0.11 (≈ 0.036 µg/mL)	1.74 (≈ 0.57 µg/mL)	–	Cc1cc(CCCOc2c(C)cc(-c3nnn(C)n3)cc2C)on1	MIC80 [21]: 0.4 µM (≈ 0.131 µg/mL); MIC [4]: 0.4 µM (≈ 0.131 µg/mL); MIC [6]: 1.7 µM (≈ 0.557 µg/mL); MIC [22]: 0.11 µM (≈ 0.036 µg/mL); MIC [23]: 0.03 µM (≈ 0.00982 µg/mL); MIC [8]: 0.02 µM (≈ 0.00655 µg/mL); MIC [9]: 0.23 µM (≈ 0.0753 µg/mL); MIC [10]: 2.2 µM (≈ 0.72 µg/mL); MIC [11]: 0.14 µM (≈ 0.0458 µg/mL); MIC [12]: 2.05 µM (≈ 0.671 µg/mL); MIC [13]: 0.01 µM (≈ 0.00327 µg/mL); MIC [14]: 0.18 µM (≈ 0.0589 µg/mL); MIC [15]: 0.02 µM (≈ 0.00655 µg/mL); MIC [16]: 0.05 µM (≈ 0.0164 µg/mL); MIC [17]: 0.06 µM (≈ 0.0196 µg/mL); MIC [18]: 0.07 µM (≈ 0.0229 µg/mL); MIC [19]: 0.4 µM (≈ 0.131 µg/mL)
0.12 (≈ 0.0427 µg/mL)	0.12 (≈ 0.0427 µg/mL)	0.2 (≈ 0.0711 µg/mL)	CCCc1cc(CCCOc2c(C)cc(-c3nnn(C)n3)cc2C)on1	MIC [4]: 0.2 µM (≈ 0.0711 µg/mL); MIC [6]: 0.12 µM (≈ 0.0427 µg/mL); MIC [22]: 0.12 µM (≈ 0.0427 µg/mL); MIC [23]: 0.03 µM (≈ 0.0107 µg/mL); MIC [8]: 0.04 µM (≈ 0.0142 µg/mL); MIC [9]: 0.09 µM (≈ 0.032 µg/mL); MIC [10]: 0.15 µM (≈ 0.0533 µg/mL); MIC [11]: 0.22 µM (≈ 0.0782 µg/mL); MIC [12]: 0.12 µM (≈ 0.0427 µg/mL); MIC [13]: 0.02 µM (≈ 0.00711 µg/mL); MIC [14]: 0.68 µM (≈ 0.242 µg/mL); MIC [15]: 0.02 µM (≈ 0.00711 µg/mL); MIC [16]: 0.08 µM (≈ 0.0284 µg/mL); MIC [17]: 0.006 µM (≈ 0.00213 µg/mL); MIC [18]: 0.2 µM (≈ 0.0711 µg/mL); MIC [19]: 0.93 µM (≈ 0.331 µg/mL)
